# According to PubChem BioAssay (NCI):
#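 Results reflect a 48-hour exposure of cells in 96-well plates to compound at five concentrations. Here, GI50 denotes the concentration required for 50% inhibition of growth. TGI is the concentration that stops growth completely.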
# Experiments:
# Assay in all cases: NCI tumour cell line growth inhibition, 48 h
# RXF 393 renal = test system: RXF 393 renal
# NCI-H460 lung = test system: NCI-H460 lung
# NCI-H23 lung = test system: NCI-H23 lung
# NCI-H522 lung = test system: NCI-H522 lung
# TK-10 renal = test system: TK-10 renal
# MALME-3M melanoma = test system: MALME-3M melanoma
# SNB-19 CNS = test system: SNB-19 CNS
# HL-60(TB) leukemia = test system: HL-60(TB) leukemia
# SNB-75 CNS = test system: SNB-75 CNS
# CCRF-CEM leukemia = test system: CCRF-CEM leukemia
# UO-31 renal = test system: UO-31 renal
# KM12 colon = test system: KM12 colon
# IGROV1 ovarian = test system: IGROV1 ovarian
# MDA-MB-231 breast = test system: MDA-MB-231 breast
# SN12C renal = test system: SN12C renal
# HCT-15 colon = test system: HCT-15 colon
# M14 melanoma = test system: M14 melanoma
# OVCAR-8 ovarian = test system: OVCAR-8 ovarian
# SK-MEL-28 melanoma = test system: SK-MEL-28 melanoma
# U251 CNS = test system: U251 CNS
# SR leukemia = test system: SR leukemia
# NCI/ADR-RES ovarian = test system: NCI/ADR-RES ovarian
# OVCAR-5 ovarian = test system: OVCAR-5 ovarian
# K-562 leukemia = test system: K-562 leukemia
# MOLT-4 leukemia = test system: MOLT-4 leukemia
# A498 renal = test system: A498 renal
# HCT-116 colon = test system: HCT-116 colon
# HOP-62 NSCLC = test system: HOP-62 NSCLC
# LOX IMVI melanoma = test system: LOX IMVI melanoma
# EKVX NSCLC = test system: EKVX NSCLC
# RPMI-8226 leukemia = test system: RPMI-8226 leukemia
# MDA-MB-435 = test system: MDA-MB-435
# UACC-257 melanoma = test system: UACC-257 melanoma
# OVCAR-4 ovarian = test system: OVCAR-4 ovarian
# OVCAR-3 ovarian = test system: OVCAR-3 ovarian
# NCI-H226 lung = test system: NCI-H226 lung
# PC-3 prostate = test system: PC-3 prostate
# A549 NSCLC = test system: A549 NSCLC
# SK-MEL-2 melanoma = test system: SK-MEL-2 melanoma
# HT29 colon = test system: HT29 colon
# CAKI-1 renal = test system: CAKI-1 renal
# SF-539 CNS = test system: SF-539 CNS
# MCF7 breast = test system: MCF7 breast
# SK-MEL-5 melanoma = test system: SK-MEL-5 melanoma
# DU-145 prostate = test system: DU-145 prostate
# ACHN renal = test system: ACHN renal
# 786-0 renal = test system: 786-0 renal
# HS 578T breast = test system: HS 578T breast
# T-47D breast = test system: T-47D breast
# UACC-62 melanoma = test system: UACC-62 melanoma
# SF-268 CNS = test system: SF-268 CNS
# COLO 205 colon = test system: COLO 205 colon
# BT-549 breast = test system: BT-549 breast
# SW-620 colon = test system: SW-620 colon
# HCC-2998 colon = test system: HCC-2998 colon
structure (smiles),measurement,setting,value
NCCCOc1cc2ccccc2cc1C(=O)NCCCOc1cc2ccccc2cc1C(=O)Nc1ccc(Cl)cc1O,GI50,RXF 393 renal,0.24 µM
same,TGI,RXF 393 renal,0.928 µM
same,GI50,NCI-H460 lung,0.202 µM
same,TGI,NCI-H460 lung,0.387 µM
same,GI50,NCI-H23 lung,0.598 µM
same,TGI,NCI-H23 lung,2.3 µM
same,GI50,NCI-H522 lung,0.929 µM
same,TGI,NCI-H522 lung,2.89 µM
same,GI50,TK-10 renal,0.583 µM
same,TGI,TK-10 renal,1.26 µM
same,GI50,MALME-3M melanoma,1.48 µM
same,TGI,MALME-3M melanoma,3.5 µM
same,GI50,SNB-19 CNS,0.72 µM
same,TGI,SNB-19 CNS,2.88 µM
same,GI50,HL-60(TB) leukemia,0.512 µM
same,TGI,HL-60(TB) leukemia,2.2 µM
same,GI50,SNB-75 CNS,0.455 µM
same,TGI,SNB-75 CNS,1.02 µM
same,GI50,CCRF-CEM leukemia,0.334 µM
same,TGI,CCRF-CEM leukemia,11.5 µM
same,GI50,UO-31 renal,0.355 µM
same,TGI,UO-31 renal,1.78 µM
same,GI50,KM12 colon,0.288 µM
same,TGI,KM12 colon,0.983 µM
same,GI50,IGROV1 ovarian,1.9 µM
same,TGI,IGROV1 ovarian,4.42 µM
same,GI50,MDA-MB-231 breast,0.629 µM
same,TGI,MDA-MB-231 breast,1.82 µM
same,GI50,SN12C renal,1.73 µM
same,TGI,SN12C renal,3.83 µM
same,GI50,HCT-15 colon,0.658 µM
same,TGI,HCT-15 colon,2.32 µM
same,GI50,M14 melanoma,0.881 µM
same,TGI,M14 melanoma,2.55 µM
same,GI50,OVCAR-8 ovarian,0.24 µM
same,TGI,OVCAR-8 ovarian,0.557 µM
same,GI50,SK-MEL-28 melanoma,0.289 µM
same,TGI,SK-MEL-28 melanoma,0.728 µM
same,GI50,U251 CNS,0.187 µM
same,TGI,U251 CNS,0.35 µM
same,GI50,SR leukemia,0.194 µM
same,TGI,SR leukemia,0.871 µM
same,GI50,NCI/ADR-RES ovarian,1.22 µM
same,TGI,NCI/ADR-RES ovarian,6.01 µM
same,GI50,OVCAR-5 ovarian,1.09 µM
same,TGI,OVCAR-5 ovarian,2.56 µM
same,GI50,K-562 leukemia,0.262 µM
same,TGI,K-562 leukemia,1.02 µM
same,GI50,MOLT-4 leukemia,0.314 µM
same,TGI,MOLT-4 leukemia,1.54 µM
same,GI50,A498 renal,0.552 µM
same,TGI,A498 renal,1.99 µM
same,GI50,HCT-116 colon,0.19 µM
same,TGI,HCT-116 colon,0.374 µM
same,GI50,HOP-62 NSCLC,0.34 µM
same,TGI,HOP-62 NSCLC,1.14 µM
same,GI50,LOX IMVI melanoma,0.436 µM
same,TGI,LOX IMVI melanoma,1.78 µM
same,GI50,EKVX NSCLC,0.74 µM
same,TGI,EKVX NSCLC,2.43 µM
same,GI50,RPMI-8226 leukemia,0.578 µM
same,TGI,RPMI-8226 leukemia,7.09 µM
same,GI50,MDA-MB-435,0.899 µM
same,TGI,MDA-MB-435,2.6 µM
same,GI50,UACC-257 melanoma,1.23 µM
same,TGI,UACC-257 melanoma,2.59 µM
same,GI50,OVCAR-4 ovarian,0.247 µM
same,TGI,OVCAR-4 ovarian,0.737 µM
same,GI50,OVCAR-3 ovarian,1.81 µM
same,TGI,OVCAR-3 ovarian,3.49 µM
same,GI50,NCI-H226 lung,0.477 µM
same,TGI,NCI-H226 lung,1.11 µM
same,GI50,PC-3 prostate,0.306 µM
same,TGI,PC-3 prostate,0.974 µM
same,GI50,A549 NSCLC,0.198 µM
same,TGI,A549 NSCLC,0.383 µM
same,GI50,SK-MEL-2 melanoma,1.21 µM
same,TGI,SK-MEL-2 melanoma,2.91 µM
same,GI50,HT29 colon,0.411 µM
same,TGI,HT29 colon,1.61 µM
same,GI50,CAKI-1 renal,0.829 µM
same,TGI,CAKI-1 renal,2.42 µM
same,GI50,SF-539 CNS,1.05 µM
same,TGI,SF-539 CNS,2.57 µM
same,GI50,MCF7 breast,0.183 µM
same,TGI,MCF7 breast,0.349 µM
same,GI50,SK-MEL-5 melanoma,1.36 µM
same,TGI,SK-MEL-5 melanoma,2.8 µM
same,GI50,DU-145 prostate,0.72 µM
same,TGI,DU-145 prostate,2.17 µM
same,GI50,ACHN renal,0.387 µM
same,TGI,ACHN renal,1.44 µM
same,GI50,786-0 renal,0.199 µM
same,TGI,786-0 renal,0.441 µM
same,GI50,HS 578T breast,1.86 µM
same,TGI,HS 578T breast,4.39 µM
same,GI50,T-47D breast,1.88 µM
same,TGI,T-47D breast,4.24 µM
same,GI50,UACC-62 melanoma,1.58 µM
same,TGI,UACC-62 melanoma,3.53 µM
same,GI50,SF-268 CNS,0.904 µM
same,TGI,SF-268 CNS,3.17 µM
same,GI50,COLO 205 colon,1.7 µM
same,TGI,COLO 205 colon,3.34 µM
same,GI50,BT-549 breast,1.85 µM
same,TGI,BT-549 breast,3.6 µM
same,GI50,SW-620 colon,0.189 µM
same,TGI,SW-620 colon,0.381 µM
same,GI50,HCC-2998 colon,0.992 µM
same,TGI,HCC-2998 colon,2.48 µM
